The values below come from patent US9902728B2, “Pyrrolo and pyrazolopyrimidines as ubiquitin-specific protease 7 inhibitors” (Forma Therapeutics, Inc., priority 2014, dated 2018).

Some results are limits rather than exact numbers.

One assay deals with T1, USP7 (Homo sapiens, UniProt Q93009).
T1 construct: USP7, construct USP7 (208-1102) 6*His, Viva Biotech; 6xHis (C); purchased Viva Biotech
T1 sequence (Q93009 208-1102): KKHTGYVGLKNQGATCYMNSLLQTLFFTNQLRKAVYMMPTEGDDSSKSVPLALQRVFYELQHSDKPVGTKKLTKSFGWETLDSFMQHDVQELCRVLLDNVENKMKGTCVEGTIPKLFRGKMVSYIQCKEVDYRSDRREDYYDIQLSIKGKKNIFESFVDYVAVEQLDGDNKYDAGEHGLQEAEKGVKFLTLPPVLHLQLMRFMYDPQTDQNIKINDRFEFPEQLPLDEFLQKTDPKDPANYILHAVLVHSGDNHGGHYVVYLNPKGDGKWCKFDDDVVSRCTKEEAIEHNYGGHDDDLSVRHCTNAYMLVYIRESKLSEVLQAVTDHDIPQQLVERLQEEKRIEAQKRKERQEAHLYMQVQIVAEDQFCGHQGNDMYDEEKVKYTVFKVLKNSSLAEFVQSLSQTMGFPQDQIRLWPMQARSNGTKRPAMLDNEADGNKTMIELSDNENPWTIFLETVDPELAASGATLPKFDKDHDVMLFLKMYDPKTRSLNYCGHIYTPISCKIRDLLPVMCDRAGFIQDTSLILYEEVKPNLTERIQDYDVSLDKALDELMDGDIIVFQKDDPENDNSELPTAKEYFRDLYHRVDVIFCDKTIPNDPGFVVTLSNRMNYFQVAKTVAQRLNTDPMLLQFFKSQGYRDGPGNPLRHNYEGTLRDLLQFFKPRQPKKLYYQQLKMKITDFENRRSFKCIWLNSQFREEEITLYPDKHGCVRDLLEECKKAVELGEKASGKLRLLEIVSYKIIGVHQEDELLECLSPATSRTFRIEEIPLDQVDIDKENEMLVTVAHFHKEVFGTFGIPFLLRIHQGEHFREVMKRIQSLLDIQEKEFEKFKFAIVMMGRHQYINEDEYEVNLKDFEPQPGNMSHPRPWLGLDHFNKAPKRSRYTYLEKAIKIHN
Kind of assay: USP7 Assay A (Ubitquin-Rhodamine 110 Assay). The format is biochemical. Conditions: USP7 activity in USP7 assay A and B (table does not say which assay per compound); read-out: USP7_IC50. A digest of the protocol:
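Enzyme and compound sat together for 30 min before Ub-Rh110 was added, in buffer of 20 mM Tris-HCl (pH 8.0), 1 mM GSH, 0.03% BGG and 0.01% Triton X-100.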
With `O=C(C[C@H](C(F)F)n1cc(F)cn1)N1CCC(O)(Cn2cnc3c(cnn3-c3ccc(F)cc3)c2=O)CC1` [Compound I-1159], the IC50 is under 0.2 µM.

Take `O=C(C1CCC(NC2CC2)CC1)N1CCC(O)(Cn2cnc3c(cnn3-c3ccc(F)cc3)c2=O)CC1` (stereo not drawn) [Compound I-1072]: the IC50 lay within 1 to 10 µM.

In the case of `O=C(C[C@@H](n1cccn1)C(F)(F)F)N1CCC(O)(Cn2cnc3c(cnn3-c3ccc(F)cc3)c2=O)CC1` [Compound I-913], the IC50 fell in the range of 1 to 10 µM.

`O=C(c1cnn(C2CC2)c1)N1CCC(O)(Cn2cnc3c(ccn3-c3ccc(F)cc3)c2=O)CC1` [Compound I-1079]: the IC50 fell in the range of 0.2 to 1 µM.

Consider `Cc1ncc(C(=O)N2CCC(O)(Cn3cnc4c(cnn4-c4ccc(OCC5(F)CCC5)cc4)c3=O)CC2)o1` [Compound I-1135], for which the IC50 was under 0.2 µM.

On to `O=C(C1CCC(Nc2cccc(F)n2)CC1)N1CCC(O)(Cn2cnc3c(cnn3-c3ccc(F)cc3)c2=O)CC1` (stereo not drawn) [Compound I-1023], for which the IC50 is under 0.2 µM.

For the compound `O=C(N1CCC(Oc2ccccn2)CC1)N1CCC(O)(Cn2cnc3c(cnn3-c3ccc(F)cc3)c2=O)CC1` [Compound I-610], the IC50 fell in the range of 1 to 10 µM.

For `O=C(c1ccc(N2CCN3CCCC3C2)cc1)N1CCC(O)(Cn2cnc3c(cnn3-c3ccc(F)cc3)c2=O)CC1` (stereo not drawn) [Compound I-487], the IC50 lay within 1 to 10 µM.

In the case of `CC1(C(=O)N2CCC(O)(Cn3cnc4c(cnn4-c4ccc(Cl)cc4)c3=O)CC2)CC1` [Compound I-1632], the IC50 lay in the range of 1 to 10 µM.

`CC1(C(=O)N2CCC(O)(Cn3cnc4c(cnn4-c4ccc(F)cc4)c3=O)CC2)CCC(Oc2ccccn2)CC1` (stereo not drawn) [Compound I-745]: the IC50 lay in the range of 1 to 10 µM.

As for `O=C(C1CC1)N1CCC(O)(Cn2cnc3c(cnn3-c3ccc(N4CCC5(CC4)CC5)cc3)c2=O)CC1` [Compound I-1755], the IC50 was 1 to 10 µM.

As to `CC1(C(=O)N2CCC(O)(Cn3cnc4c(cnn4-c4cccc(-n5ccc(F)n5)c4)c3=O)CC2)CC1` [Compound I-1042], the IC50 lay within 0.2 to 1 µM.

Regarding `O=C(C1CCC(Oc2ccc(F)cn2)CC1)N1CCC(O)(Cn2cnc3c(cnn3-c3ccc(F)cc3)c2=O)CC1` (stereo not drawn) [Compound I-738], the IC50 fell in the range of 0.2 to 1 µM.

As to `O=C(C[C@H](C(F)F)n1ccc(F)n1)N1CCC(O)(Cn2cnc3c(cnn3-c3ccc(F)cc3)c2=O)CC1` [Compound I-543], the IC50 lay within 0.2 to 1 µM.

For `N#Cc1ccc(OC2CCC(C(=O)N3CCC(O)(Cn4cnc5c(cnn5-c5ccc(F)cc5)c4=O)CC3)CC2)nc1` (stereo not drawn) [Compound I-1014], the IC50 lay in the range of 0.2 to 1 µM.

Take `C=CC(=O)N1[C@@H](C(=O)N2CCC(O)(Cn3cnc4c(cnn4-c4ccc(F)cc4)c3=O)CC2)C[C@@H]1C` [Compound I-1003]: the IC50 lay in the range of 1 to 10 µM.

Turning to `CN1CC2CC1CN2c1ccc(C(=O)N2CCC(O)(Cn3cnc4c(cnn4-c4ccc(F)cc4)c3=O)CC2)cc1` (stereo not drawn) [Compound I-604], the IC50 lay within 1 to 10 µM.

For the compound `Cn1cc(OC2CCC(C(=O)N3CCC(O)(Cn4cnc5c(cnn5-c5ccc(F)cc5)c4=O)CC3)CC2)cn1` (stereo not drawn) [Compound I-757], the IC50 was in the range of 0.2 to 1 µM.

On to `CC1(C(=O)N2CCC(O)(Cn3cnc4c(cnn4-c4ccc(N5CCC6(CC5)CC(F)(F)C6)cc4)c3=O)CC2)CC1` [Compound I-490], for which the IC50 lay within 0.2 to 1 µM.

Consider `CC1(O)CCN(c2ccc(-n3ncc4c(=O)n(CC5(O)CCN(C(=O)c6ccc(F)cc6)CC5)cnc43)cc2)C1` (stereo not drawn) [Compound I-1168], for which the IC50 is 0.2 to 1 µM.

As to `O=C(c1ccc(F)cc1)N1CCC(O)(Cn2cnc3c(cnn3-c3ccc(N4CCN5CCCC[C@@H]5C4)cc3)c2=O)CC1` [Compound I-484, (R)-5-((1-(4-fluorobenzoyl)-4-hydroxypiperidin-4-yl)methyl)-1-(4-(octahydro-2H-pyrido[1,2-a]pyrazin-2-yl)phenyl)-1,5-dihydro-4H-pyrazolo[3,4-d]pyrimidin-4-one], the IC50 was under 0.2 µM.

Still in this assay, the particulars now being: USP7 assay A and B (table does not say which assay per compound); Ubiquitin-Rhodamine 110 substrate; read-out: USP7_IC50.
Regarding `CC(C)n1ncc2c(=O)n(CC3(O)CCN(C(=O)C[C@@H](C)c4ccccc4)CC3)cnc21` [Compound I-61], the IC50 was 0.2 to 1 µM.

The assay is the same for the next values; noted with them: USP7 assay A and B (table does not say which assay per compound); read-out: USP7_IC50.
`COc1cc(-n2ncc3c(=O)n(CC4(O)CCN(C(=O)c5ccc(F)cc5)CC4)cnc32)ccc1F` [Compound I-627]: the IC50 is 1 to 10 µM.

`O=C(O)c1ccc(C(=O)N2CCC(O)(Cn3cnc4c(cnn4-c4ccccc4)c3=O)CC2)cc1` [Compound I-272]: the IC50 is 1 to 10 µM.

Regarding `O=C(Nc1cccnc1)N1CCC(O)(Cn2cnc3c(cnn3-c3ccc(F)cc3)c2=O)CC1` [Compound I-1708], the IC50 lay in the range of 1 to 10 µM.

For `C[C@@H](CC(=O)N1CCC(O)(Cn2cnc3c(cnn3-c3ccc(-c4ccccc4)cc3)c2=O)CC1)n1cccn1` [Compound I-649], the IC50 lay in the range of 0.2 to 1 µM.

`CN1CCC(Oc2ccc(C(=O)N3CCC(O)(Cn4cnc5c(cnn5-c5ccc(F)cc5)c4=O)CC3)cc2)CC1` [Compound I-533]: the IC50 was in the range of 1 to 10 µM.

Regarding `Cc1ccc(-n2ncc3c(=O)n(CC4(O)CCN(C(=O)c5ccc(Oc6ccccn6)cc5)CC4)cnc32)cc1` [Compound I-1510], the IC50 lay in the range of 0.2 to 1 µM.

Consider `O=C(C1CC1)N1CCC(O)(Cn2cnc3c(cnn3-c3ccc(NS(=O)(=O)Cc4ccc(F)cc4)cc3)c2=O)CC1` [Compound I-1433], for which the IC50 was 1 to 10 µM.

Regarding `O=C(c1ccc(Cl)cc1)N1CCC(O)(Cn2cnc3c(cnn3-c3ccc(F)cc3)c2=O)CC1` [Compound I-302, 5-{[1-(4-chlorobenzoyl)-4-hydroxypiperidin-4-yl]methyl}-1-(4-fluorophenyl)-1H,4H,5H-pyrazolo[3,4-d]pyrimidin-4-one], the IC50 fell in the range of 0.2 to 1 µM.

In the case of `Cc1cnc(C(=O)N2CCC(O)(Cn3cnc4c(cnn4-c4ccccc4)c3=O)CC2)cn1` [Compound I-227], the IC50 is over 10 µM.

As to `O=C(Nc1nccs1)c1ccc(-n2ncc3c(=O)n(CC4(O)CCN(C(=O)C5CC5)CC4)cnc32)cc1` [Compound I-1493], the IC50 was 1 to 10 µM.

Regarding `O=C(C1CC1)N1CCC(O)(Cn2cnc3c(cnn3-c3ccc(N4CCNCC4)cc3)c2=O)CC1` [Compound I-499], the IC50 is 0.2 to 1 µM.

Turning to `CN(C)C(=O)Nc1cccc(-n2ncc3c(=O)n(CC4(O)CCN(C(=O)C5CC5)CC4)cnc32)c1` [Compound I-1501], the IC50 was in the range of 1 to 10 µM.

For the compound `N#CC1CCN(Cc2cccc(-n3ncc4c(=O)n(CC5(O)CCN(C(=O)C6CC6)CC5)cnc43)c2)CC1` [Compound I-446], the IC50 was 1 to 10 µM.

As to `O=C(C1CC1)N1CCC(O)(Cn2cnc3c(cnn3-c3cccc(-c4cnc(N5CCOCC5)nc4)c3)c2=O)CC1` [Compounds I-401], the IC50 lay in the range of 1 to 10 µM.

Regarding `C[C@@H](CC(=O)N1CCC(O)(Cn2cnc3c(cnn3-c3ccc(F)cc3)c2=O)CC1)n1cccn1` [Compound I-514], the IC50 was in the range of 0.2 to 1 µM.

Regarding `O=C(C1CC1)N1CCC(O)(Cn2cnc3c(cnn3-c3ccc(NCCN4CCCCC4)cc3)c2=O)CC1` [Compound I-1146], the IC50 lay within 0.2 to 1 µM.

For `COc1ccc(C(=O)N2CCC(O)(Cn3cnc4c(cnn4-c4ccc(F)cc4)c3=O)CC2)cc1` [Compound I-267], the IC50 fell in the range of 0.2 to 1 µM.

With `COCCOc1ccc(-n2ncc3c(=O)n(CC4(O)CCN(C(=O)c5ccc(F)cc5)CC4)cnc32)cc1` [Compound I-1363], the IC50 fell in the range of 1 to 10 µM.

As for `CC1(C)CC(NC(=O)N2CCC(O)(Cn3cnc4c(cnn4-c4ccc(F)cc4)c3=O)CC2)C1` [Compound I-482], the IC50 was over 10 µM.

With `CC(CC(=O)N1CCC(O)(Cn2cnc3c(cnn3-c3ccc(F)cc3)c2=O)CC1)N1CC2CCCC2C1` (stereo not drawn) [Compound I-523], the IC50 is over 10 µM.

As to `O=C(N1CCC(O)(Cn2cnc3c(cnn3-c3ccccc3)c2=O)CC1)C12CC(C(F)(F)F)(C1)C2` [Compound I-290], the IC50 fell in the range of 1 to 10 µM.

For the compound `C[C@H](CC(=O)N1CCC(O)(Cn2cnc3c(cnn3-c3cccc(C(F)(F)F)c3)c2=O)CC1)c1ccccc1` [Compound I-67], the IC50 is under 0.2 µM.

For `CN1CCN(c2ccc(C(=O)N3CCC(O)(Cn4cnc5c(cnn5-c5ccc(F)cc5)c4=O)CC3)cc2F)CC1` [Compound I-537], the IC50 was 1 to 10 µM.

Regarding `CN(C)C(=O)N1CCC(O)(Cn2cnc3c(cnn3-c3ccc(N4CCNCC4)cc3)c2=O)CC1` [Compound I-967], the IC50 lay in the range of 1 to 10 µM.

As to `O=C(c1cccn1Cc1ccccc1)N1CCC(O)(Cn2cnc3c(cnn3-c3ccccc3)c2=O)CC1` [Compound I-150], the IC50 was under 0.2 µM.

Take `C[C@@H](CC(=O)N1CCC(O)(Cn2cnc3c(cnn3-c3ccccc3)c2=O)CC1)n1cccn1` [Compound I-176]: the IC50 was in the range of 1 to 10 µM.

Consider `C[C@](O)(c1ccc(C(=O)N2CCC(O)(Cn3cnc4c(cnn4-c4ccc(F)cc4)c3=O)CC2)cc1)C(F)(F)F` (single isomer, unassigned) [Compound I-528], for which the IC50 lay within 1 to 10 µM.

Take `CC(CC(=O)N1CCC(O)(Cn2cnc3c(cnn3-c3ccc(F)cc3)c2=O)CC1)n1cccn1` (stereo not drawn) [Compound I-513]: the IC50 lay in the range of 0.2 to 1 µM.

Consider `Cc1ccc(-n2ncc3c(=O)n(CC4(O)CCN(C(=O)c5ccc(OC(F)F)cc5)CC4)cnc32)cc1` [Compound I-1058], for which the IC50 was 0.2 to 1 µM.

In the case of `CC(=O)Nc1cccc(C(=O)N2CCC(O)(Cn3cnc4c(cnn4-c4ccccc4)c3=O)CC2)c1` [Compound I-181], the IC50 was 1 to 10 µM.

On to `O=C(c1ccc(-n2ccnn2)cc1)N1CCC(O)(Cn2cnc3c(cnn3-c3ccc(Cl)cc3)c2=O)CC1` [Compound I-1128], for which the IC50 lay within 0.2 to 1 µM.

Take `O=C(c1ccc(F)cc1)N1CCC(O)(Cn2cnc3c(cnn3-c3ccc(F)c(N4CCNCC4)c3)c2=O)CC1` [Compound I-824]: the IC50 lay in the range of 0.2 to 1 µM.

`C[C@@H](CC(=O)N1CCC(O)(Cn2cnc3c(cnn3-c3ccc(-c4ccc(F)cc4)cc3)c2=O)CC1)n1cccn1` [Compound I-654]: the IC50 was over 10 µM.

Consider `O=C(c1ccc(OC(F)F)cc1)N1CCC(O)(Cn2cnc3c(cnn3-c3ccccc3)c2=O)CC1` [Compound I-274], for which the IC50 fell in the range of 1 to 10 µM.

Consider `O=C(C1CC1)N1CCC(O)(Cn2cnc3c(cnn3C3CCCCC3)c2=O)CC1` [Compound I-29], for which the IC50 is over 10 µM.
